Measured values taken from patent US8680052B1, “Methods of treating, reducing the incidence of, and/or preventing ischemic events” (The Medicines Company, priority 2013, dated 2014).
Like-named read-outs stand apart in the source and are kept apart here.

System: patients with acute coronary syndromes undergoing PCI
[1] = 48-hour, MITT Without STEMI, exploratory

SMILES: COC(=O)[C@H](c1ccccc1Cl)N1CCc2sccc2C1 [Clopidogrel, clopidogrel, reference compound]
- All-cause mortality (48-hour, MITT Without STEMI): 5 (0.1)
- IDR (48-hour, MITT Without STEMI): 23 (0.6)
- MI (48-hour, MITT Without STEMI): 256 (6.6)
- Mortality/MI/IDR (primary endpoint) (48-hour, MITT Without STEMI): 276 (7.1)
- Q-wave MI (48-hour, MITT Without STEMI): 10 (0.3)
- Stent thrombosis (48-hour, MITT Without STEMI): 11 (0.3)
- Stroke (48-hour, MITT Without STEMI): 7 (0.2)
- Mortality/Q-wave MI/IDR [1]: 34 (0.9)
- Mortality/Q-wave MI/Stent thrombosis [1]: 23 (0.6)
- All-cause mortality (48 hours, ITT): 11 (0.2) no. (%)
- IDR (48 hours, ITT): 31 (0.7) no. (%)
- MI (48 hours, ITT): 265 (6.0) no. (%)
- Mortality/MI/IDR (48 hours, ITT): 297 (6.7) no. (%)
- Mortality/Q-wave MI/IDR (48 hours, ITT): 48 (1.1) no. (%)
- Mortality/Q-wave MI/Stent thrombosis (48 hours, ITT): 33 (0.7) no. (%)
- Q-wave MI (48 hours, ITT): 10 (0.2) no. (%)
- Stent thrombosis (48 hours, ITT): 15 (0.3) no. (%)
- Stroke (48 hours, ITT): 8 (0.2) no. (%)
- All-cause mortality (48 hours, ITT With STEMI): 5 (1.0) no. (%)
- IDR (48 hours, ITT With STEMI): 8 (1.6) no. (%)
- MI (48 hours, ITT With STEMI): 9 (1.8) no. (%)
- Mortality/MI/IDR (48 hours, ITT With STEMI): 20 (3.9) no. (%)
- Mortality/Q-wave MI/IDR (48 hours, ITT With STEMI): 13 (2.6) no. (%)
- Mortality/Q-wave MI/Stent thrombosis (48 hours, ITT With STEMI): 9 (1.8) no. (%)
- Q-wave MI (48 hours, ITT With STEMI): 0 (0.0) no. (%)
- Stent thrombosis (48 hours, ITT With STEMI): 4 (0.8) no. (%)
- Stroke (48 hours, ITT With STEMI): 1 (0.2) no. (%)
- All-cause mortality (48 hours, ITT Without STEMI): 6 (0.2) no. (%)
- IDR (48 hours, ITT Without STEMI): 23 (0.6) no. (%)
- MI (48 hours, ITT Without STEMI): 256 (6.5) no. (%)
- Mortality/MI/IDR (48 hours, ITT Without STEMI): 277 (7.1) no. (%)
- Mortality/Q-wave MI/IDR (48 hours, ITT Without STEMI): 35 (0.9) no. (%)
- Mortality/Q-wave MI/Stent thrombosis (48 hours, ITT Without STEMI): 24 (0.6) no. (%)
- Q-wave MI (48 hours, ITT Without STEMI): 10 (0.3) no. (%)
- Stent thrombosis (48 hours, ITT Without STEMI): 11 (0.3) no. (%)
- Stroke (48 hours, ITT Without STEMI): 7 (0.2) no. (%)
- All-cause mortality (48 hours, MITT): 9 (0.2) no. (%)
- IDR (48 hours, MITT): 30 (0.7) no. (%)
- MI (48 hours, MITT): 264 (6.1) no. (%)
- Mortality/MI/IDR (48 hours, MITT): 293 (6.8) no. (%)
- Mortality/Q-wave MI/IDR (48 hours, MITT): 45 (1.0) no. (%)
- Mortality/Q-wave MI/Stent thrombosis (48 hours, MITT): 31 (0.7) no. (%)
- Q-wave MI (48 hours, MITT): 10 (0.2) no. (%)
- Stent thrombosis (48 hours, MITT): 15 (0.3) no. (%)
- Stroke (48 hours, MITT): 7 (0.2) no. (%)
- All-cause mortality (48 hours, MITT With STEMI): 4 (0.9) no. (%)
- IDR (48 hours, MITT With STEMI): 7 (1.6) no. (%)
- MI (48 hours, MITT With STEMI): 8 (1.8) no. (%)
- Mortality/MI/IDR (48 hours, MITT With STEMI): 17 (3.8) no. (%)
- Mortality/Q-wave MI/IDR (48 hours, MITT With STEMI): 11 (2.5) no. (%)
- Mortality/Q-wave MI/Stent thrombosis (48 hours, MITT With STEMI): 8 (1.8) no. (%)
- Q-wave MI (48 hours, MITT With STEMI): 0 (0.0) no. (%)
- Stent thrombosis (48 hours, MITT With STEMI): 4 (0.9) no. (%)
- Stroke (48 hours, MITT With STEMI): 0 (0.0) no. (%)
- All-cause mortality (48 hours, MITT Without STEMI): 5 (0.1) no. (%)
- IDR (48 hours, MITT Without STEMI): 23 (0.6) no. (%)
- MI (48 hours, MITT Without STEMI): 256 (6.6) no. (%)
- Mortality/MI/IDR (Prespecified primary endpoint) (48 hours, MITT Without STEMI): 276 (7.1) no. (%)
- Mortality/Q-wave MI/IDR (48 hours, MITT Without STEMI): 34 (0.9) no. (%)
- Mortality/Q-wave MI/Stent thrombosis (48 hours, MITT Without STEMI): 23 (0.6) no. (%)
- Q-wave MI (48 hours, MITT Without STEMI): 10 (0.3) no. (%)
- Stent thrombosis (48 hours, MITT Without STEMI): 11 (0.3) no. (%)
- Stroke (48 hours, MITT Without STEMI): 7 (0.2) no. (%)
- primary composite of all-cause mortality, MI, or ischemia-driven revascularization (48 hours, MITT Without STEMI): 7.1%
- All-cause mortality (48 hours, Safety population): 9 (0.2) no. (%)
- IDR (48 hours, Safety population): 30 (0.7) no. (%)
- MI (48 hours, Safety population): 265 (6.1) no. (%)
- Mortality/MI/IDR (48 hours, Safety population): 294 (6.7) no. (%)
- Mortality/Q-wave MI/IDR (48 hours, Safety population): 45 (1.0) no. (%)
- Mortality/Q-wave MI/Stent thrombosis (48 hours, Safety population): 31 (0.7) no. (%)
- Q-wave MI (48 hours, Safety population): 10 (0.2) no. (%)
- Stent thrombosis (48 hours, Safety population): 15 (0.3) no. (%)
- Stroke (48 hours, Safety population): 7 (0.2) no. (%)
- All-cause mortality (30 days, ITT): 47 (1.1) no. (%)
- IDR (30 days, ITT): 69 (1.6) no. (%)
- MI (30 days, ITT): 293 (6.7) no. (%)
- Mortality/MI/IDR (30 days, ITT): 373 (8.5) no. (%)
- Mortality/Q-wave MI/IDR (30 days, ITT): 119 (2.7) no. (%)
- Mortality/Q-wave MI/Stent thrombosis (30 days, ITT): 82 (1.9) no. (%)
- Q-wave MI (30 days, ITT): 15 (0.3) no. (%)
- Stent thrombosis (30 days, ITT): 30 (0.7) no. (%)
- All-cause mortality (30 days, ITT With STEMI): 16 (3.2) no. (%)
